Assay results published in article PMC2658647 (Annals of neurology, 2009).
pKi: −log10 of the molar value.

Experiments:
[1] = target: iNOS (Mus musculus, UniProt P29477); assay: NOS inhibition, hemoglobin capture assay; assay type: biochemical; conditions: read-out: Ki iNOS; apparent Ki; recombinant enzyme; 10 µM L-arginine
[2] = test system: blood pressure; conditions: cited from earlier work

| Compound | pKi [1] | effect on blood pressure [2] |
| --- | --- | --- |
| N=C(NCCC[C@H](N)C(=O)O)N[N+](=O)[O-] [L-NNA, L-N^ω-Nitroarginine] | 5.34 | – |
| COC(=O)[C@@H](N)CCCNC(=N)N[N+](=O)[O-] [L-N^ω-nitroarginine methyl ester] | – | sharp increases in blood pressure |
